± gives the expanded uncertainty stated by the source.
Test: xn = mol fraction of the nth substance listed
Details: 100 kPa, Liquid; for mass density: Vibrating tube method; for viscosity: Falling or rolling sphere viscometry

CCCCCCCCCCC [undecane] + CCCO
Details	mass density, 343.15 K [kg/m3]	mass density, 348.15 K [kg/m3]	mass density, 353.15 K [kg/m3]	mass density, 358.15 K [kg/m3]	mass density, 363.15 K [kg/m3]	viscosity, 348.15 K [mPa·s]	viscosity, 353.15 K [mPa·s]	viscosity, 358.15 K [mPa·s]	viscosity, 363.15 K [mPa·s]
x1 = 0.1003	–	740.24 ± 1.5	735.57 ± 1.5	730.81 ± 1.5	725.93 ± 1.5	0.617 ± 0.0078	0.568 ± 0.0071	0.525 ± 0.0066	0.4864 ± 0.0061
x1 = 0.2009	–	728.8 ± 1.5	724.18 ± 1.5	719.45 ± 1.4	714.64 ± 1.4	0.578 ± 0.0073	0.535 ± 0.0067	0.497 ± 0.0063	0.4635 ± 0.0058
x1 = 0.3004	–	720.53 ± 1.4	715.97 ± 1.4	711.32 ± 1.4	706.59 ± 1.4	0.553 ± 0.007	0.515 ± 0.0065	0.481 ± 0.0061	0.4506 ± 0.0057
x1 = 0.3997	–	714.34 ± 1.4	709.86 ± 1.4	705.29 ± 1.4	700.67 ± 1.4	0.537 ± 0.0068	0.502 ± 0.0064	0.471 ± 0.006	0.443 ± 0.0056
x1 = 0.4998	–	709.64 ± 1.4	705.23 ± 1.4	700.75 ± 1.4	696.22 ± 1.4	0.527 ± 0.0068	0.495 ± 0.0063	0.466 ± 0.006	0.4401 ± 0.0056
x1 = 0.6005	710.14 ± 1.4	705.88 ± 1.4	701.57 ± 1.4	697.19 ± 1.4	692.77 ± 1.4	0.522 ± 0.0067	0.492 ± 0.0063	0.465 ± 0.006	0.4396 ± 0.0057
x1 = 0.6974	707.27 ± 1.4	703.09 ± 1.4	698.86 ± 1.4	694.58 ± 1.4	690.27 ± 1.4	0.519 ± 0.0067	0.49 ± 0.0064	0.463 ± 0.006	0.4398 ± 0.0057
x1 = 0.8	704.99 ± 1.4	700.9 ± 1.4	696.77 ± 1.4	692.62 ± 1.4	688.42 ± 1.4	0.521 ± 0.0068	0.492 ± 0.0064	0.467 ± 0.0061	0.4438 ± 0.0058
x1 = 0.8963	703.43 ± 1.4	699.45 ± 1.4	695.46 ± 1.4	691.44 ± 1.4	687.41 ± 1.4	0.528 ± 0.007	0.501 ± 0.0066	0.476 ± 0.0063	0.4531 ± 0.006
x1 = 1	703.22 ± 1.4	699.47 ± 1.4	695.72 ± 1.4	691.96 ± 1.4	688.18 ± 1.4	0.549 ± 0.0073	0.522 ± 0.007	0.497 ± 0.0066	0.475 ± 0.0063

— the NIST ThermoML archive (doi:10.1021/acs.jced.6b00121)
